Carcinogen call data for five compounds are collected here from PubChem BioAssay AID1259411 (Chemical Carcinogenesis Research Information System (CCRIS), 2018).

Activity calls are given as the source filed them. The rule behind the calls is not given here.

For the data set, the system named is rodent carcinogenicity bioassays, tumor incidence. Nature of the data set: CCRIS carcinogenicity studies. In outline:
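NCI-built, expert-reviewed records of carcinogenicity and related test outcomes (mutagenicity, tumor promotion/inhibition) compiled from published and report sources, historical span 1985-2011, not updated.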

In the case of `Nc1c(Br)cc(Br)c2c1C(=O)c1ccccc1C2=O`, the carcinogen call (Species: MOUSE, Strain/Sex: B6C3F1/FEMALE, Route: ORAL, Dose: 0, 10000, 20000 PPM IN DIET FOR 104 WK (STUDY DURATION: 106 WK), Dose: 0, 10000, 20000 PPM IN DIET FOR 104 WK (STUDY DURATION: 106 WK), Tumor Site: Type of Lesion: LIVER: HEPATOCELLULAR ADENOMA, HEPATOCELLULAR CARCINOMA, FORESTOMACH: SQUAMOUS CELL ADENOMA, SQUAMOUS CELL CARCINOMA, LU, Tumor Site: Type of Lesion: LIVER: HEPATOCELLULAR ADENOMA, HEPATOCELLULAR CARCINOMA, FORESTOMACH: SQUAMOUS CELL ADENOMA, SQUAMOUS CELL CARCINOMA, LU) is “active; positive”; the carcinogen call (Species: MOUSE, Strain/Sex: B6C3F1/MALE, Route: ORAL, Dose: 0, 10000, 20000 PPM IN DIET FOR 104 WK (STUDY DURATION: 106 WK), Dose: 0, 10000, 20000 PPM IN DIET FOR 104 WK (STUDY DURATION: 106 WK), Tumor Site: Type of Lesion: LIVER: HEPATOCELLULAR ADENOMA, HEPATOCELLULAR CARCINOMA, HEPATOBLASTOMA, FORESTOMACH: SQUAMOUS CELL PAPILLOMA, SQUAMOUS) was “active; positive”; the carcinogen call (Species: RAT, Strain/Sex: F344/FEMALE, Route: ORAL, Dose: 0, 2000, 5000, 10000 PPM IN DIET FOR UP TO 104 WK (STUDY DURATION: 106 WK), Dose: 0, 2000, 5000, 10000 PPM IN DIET FOR UP TO 104 WK (STUDY DURATION: 106 WK), Tumor Site: Type of Lesion: LIVER: HEPATOCELLULAR ADENOMA, HEPATOCELLULAR CARCINOMA, HEPATOCHOLANGIOCARCINOMA, LARGE INTESTINE: ADENOMA, CARCINOMA;, Tumor Site: Type of Lesion: LIVER: HEPATOCELLULAR ADENOMA, HEPATOCELLULAR CARCINOMA, HEPATOCHOLANGIOCARCINOMA, LARGE INTESTINE: ADENOMA, CARCINOMA) was “active; positive”; the carcinogen call (Species: RAT, Strain/Sex: F344/MALE, Route: ORAL, Dose: 0, 2000, 5000, 10000 PPM IN DIET FOR UP TO 104 WK (STUDY DURATION: 106 WK), Dose: 0, 2000, 5000, 10000 PPM IN DIET FOR UP TO 104 WK (STUDY DURATION: 106 WK), Tumor Site: Type of Lesion: LIVER: HEPATOCELLULAR ADENOMA, HEPATOCELLULAR CARCINOMA, HEPATOCHOLANGIOCARCINOMA, LARGE INTESTINE: ADENOMA, CARCINOMA;, Tumor Site: Type of Lesion: LIVER: HEPATOCELLULAR ADENOMA, HEPATOCELLULAR CARCINOMA, HEPATOCHOLANGIOCARCINOMA, LARGE INTESTINE: ADENOMA, CARCINOMA) is “active; positive”.
As for `Nc1ccc(N)c([N+](=O)[O-])c1`, the carcinogen call was “active; positive” (Species: MOUSE, Strain/Sex: B6C3F1/FEMALE, Route: ORAL, Dose: 0, 2200, 4400 PPM IN DIET, Dose: 0, 2200, 4400 PPM IN DIET, Tumor Site: Type of Lesion: LIVER: HEPATOCELLULAR ADENOMA OR CARCINOMA); “inactive; negative” (Species: MOUSE, Strain/Sex: B6C3F1/MALE, Route: ORAL, Dose: 0, 2200, 4400 PPM IN DIET, Dose: 0, 2200, 4400 PPM IN DIET); “inactive; negative” (Species: RAT, Strain/Sex: F344/FEMALE, Route: ORAL, Dose: 0, 1100, 2200 PPM IN DIET, Dose: 0, 1100, 2200 PPM IN DIET); “inactive; negative” (Species: RAT, Strain/Sex: F344/MALE, Route: ORAL, Dose: 0, 550, 1100 PPM IN DIET, Dose: 0, 550, 1100 PPM IN DIET).
Consider `Cc1cc(-c2ccccc2C)ccc1NO`, for which the carcinogen call is, setting by setting: (Species: RAT, Strain/Sex: ACI/SEG/MALE, Route: INTRAPERITONEAL, Dose: 0, 50 UMOL/KG BW 2X/WK FOR 10 WK BEGINNING AT 3 D OF AGE (STUDY DURATION: 68 WK), Tumor Site: Type of Lesion: COLON: CARCINOMA) “active; positive”; (Species: RAT, Strain/Sex: F344/MALE, Route: INTRAPERITONEAL, Dose: 0, 5, 10, 20 MG/KG 1/2 WK FOR 20 WK (STUDY DURATION: 60 WK), Dose: 0, 5, 10, 20 MG/KG 1/2 WK FOR 20 WK (STUDY DURATION: 60 WK), Tumor Site: Type of Lesion: PROSTATE: CARCINOMA, PERITONEUM: TUMOR, COLON: TUMOR, Tumor Site: Type of Lesion: PROSTATE: CARCINOMA, PERITONEUM: TUMOR, COLON: TUMOR) “active; positive”.
As to `NC=O`, the carcinogen call reads like this: (Species: Mouse, Strain/Sex: B5C3F1/Female, Route: Oral, Dose: 0, 20, 40, 80 mg/kg in deioninzed water, by gavage, 5 d/wk for 104-105 wk, Tumor Site: Type of Lesion: Liver: hepatocellular adenoma and carcinoma (combined)) “active; positive, authors described results as equivocal evidence of carcinogenic activi”; (Species: Mouse, Strain/Sex: B6C3F1/Male, Route: Oral, Dose: 0, 20, 40, 80 mg/kg in deioninzed water, by gavage, 5 d/wk for 104-105 wk, Tumor Site: Type of Lesion: Liver: hemangiosarcoma) “active; positive, authors described results as clear evidence of carcinogenic activity”; (Species: Rat, Strain/Sex: F344/N/Female, Route: Oral, Dose: 0, 20, 40, 80 mg/kg in deioninzed water, by gavage, 5 d/wk for 104-105 wk) “inactive; negative”; (Species: Rat, Strain/Sex: F344/N/Male, Route: Oral, Dose: 0, 20, 40, 80 mg/kg in deioninzed water, by gavage, 5 d/wk for 104-105 wk) “inactive; negative”.
For the compound `O[C@@H]1[C@@H]2O[C@@H]2c2c(ccc3c2ccc2ccccc23)[C@H]1O`, the carcinogen call (Species: MOUSE, Strain/Sex: ICR/FEMALE, Route: INTRAPERITONEAL, Dose: 0, 8 NMOL IN 5 µL DMSO ON D 1, 16 NMOL IN 10 µL ON D 8 AND 32 NMOL IN 20 µL ON D 15 OF LIFE (STUDY DURATION: 35 WK)) was “inactive; negative”; the carcinogen call (Species: MOUSE, Strain/Sex: ICR/FEMALE, Route: INTRAPERITONEAL, Dose: 0, 500 NMOL (TOTAL DOSE) ADMINISTERED IN DOSES OF 1/7, 2/7, AND 4/7 ON DAYS 1, 7, AND 15 OF LIFE, RESPECTIVELY (STUDY DU, Tumor Site: Type of Lesion: LUNG: TUMOR) was “active; positive”; the carcinogen call (Species: MOUSE, Strain/Sex: ICR/MALE, Route: INTRAPERITONEAL, Dose: 0, 8 NMOL IN 5 µL DMSO ON D 1, 16 NMOL IN 10 µL ON D 8 AND 32 NMOL IN 20 µL ON D 15 OF LIFE (STUDY DURATION: 35 WK)) was “inactive; negative”; the carcinogen call (Species: MOUSE, Strain/Sex: ICR/MALE, Route: INTRAPERITONEAL, Dose: 0, 500 NMOL (TOTAL DOSE) ADMINISTERED IN DOSES OF 1/7, 2/7, AND 4/7 ON DAYS 1, 7 AND 15 OF LIFE , RESPECTIVELY (STUDY DU, Tumor Site: Type of Lesion: LUNG: TUMOR) is “active; positive”.
